Assay results reported in PMC10046369, “Low-Affinity/High-Selectivity Dopamine Transport Inhibition Sufficient to Rescue Cognitive Functions in the Aging Rat” (Biomolecules, 2023).

Columns and labels:
Assay in all cases: cell-based
Set-up in all cases: functional GPCR antagonist screen (Eurofins Cerep), percent inhibition of control agonist response
Conditions in all cases: antagonist effect, against control agonist; read-out: % Inhibition of Control Agonist Response, Mean
PTH1 (h) = molecular target: T1, PTH1 (h) (Homo sapiens, UniProt Q03431)
T1 construct: gene PTH1R

S1P1 (h) = molecular target: T2, S1P1 (h) (Homo sapiens, UniProt P21453)
T2 construct: gene S1PR1

M3 (h) = molecular target: T3, M3 (h) (Homo sapiens, UniProt P20309)
T3 construct: gene CHRM3

MCH2 (h) = molecular target: T4, MCH2 (h) (Homo sapiens, UniProt Q969V1)
T4 construct: gene MCHR2
T4 sequence (Q969V1 whole entry): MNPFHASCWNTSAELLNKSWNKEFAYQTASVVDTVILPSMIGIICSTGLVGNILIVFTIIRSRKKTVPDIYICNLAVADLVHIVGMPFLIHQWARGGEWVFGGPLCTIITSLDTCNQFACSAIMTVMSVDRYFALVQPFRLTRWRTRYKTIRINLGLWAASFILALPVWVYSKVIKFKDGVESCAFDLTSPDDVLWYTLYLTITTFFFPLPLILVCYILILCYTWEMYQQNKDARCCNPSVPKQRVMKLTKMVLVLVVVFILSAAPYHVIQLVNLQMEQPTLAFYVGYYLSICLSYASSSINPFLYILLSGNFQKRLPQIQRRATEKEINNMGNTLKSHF

MC5 (h) = molecular target: T5, MC5 (h) (Homo sapiens, UniProt P33032)
T5 construct: gene MC5R

EP1 (h) = molecular target: T6, EP1 (h) (Homo sapiens, UniProt P34995)
T6 construct: gene PTGER1
T6 sequence (P34995 whole entry): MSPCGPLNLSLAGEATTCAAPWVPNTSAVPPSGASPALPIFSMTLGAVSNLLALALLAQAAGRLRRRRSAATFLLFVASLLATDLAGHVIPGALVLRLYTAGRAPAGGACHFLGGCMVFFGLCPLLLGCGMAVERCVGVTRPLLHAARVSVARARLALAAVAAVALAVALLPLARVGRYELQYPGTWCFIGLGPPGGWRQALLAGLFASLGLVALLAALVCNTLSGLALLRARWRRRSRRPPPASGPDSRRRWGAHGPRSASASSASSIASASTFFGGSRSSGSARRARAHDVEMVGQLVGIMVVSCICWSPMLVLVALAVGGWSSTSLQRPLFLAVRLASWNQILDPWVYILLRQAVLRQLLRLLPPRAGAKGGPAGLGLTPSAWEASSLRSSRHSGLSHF

M2 (h) = molecular target: T7, M2 (h) (Homo sapiens, UniProt P08172)
T7 construct: gene CHRM2
T7 sequence (P08172 whole entry): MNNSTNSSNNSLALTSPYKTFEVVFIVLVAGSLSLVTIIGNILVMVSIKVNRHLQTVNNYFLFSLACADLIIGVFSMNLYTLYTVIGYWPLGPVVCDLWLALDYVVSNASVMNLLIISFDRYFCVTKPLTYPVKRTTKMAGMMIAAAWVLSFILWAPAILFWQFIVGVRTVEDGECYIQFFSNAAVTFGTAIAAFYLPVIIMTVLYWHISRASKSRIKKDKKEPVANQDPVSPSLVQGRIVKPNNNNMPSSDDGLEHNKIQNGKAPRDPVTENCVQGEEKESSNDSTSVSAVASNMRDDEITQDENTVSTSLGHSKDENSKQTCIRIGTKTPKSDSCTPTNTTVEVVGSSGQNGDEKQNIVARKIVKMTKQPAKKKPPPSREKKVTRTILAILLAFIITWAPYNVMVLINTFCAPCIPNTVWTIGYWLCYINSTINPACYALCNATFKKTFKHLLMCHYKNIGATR

NK3 (h) = molecular target: T8, NK3 (h) (Homo sapiens, UniProt P29371)
T8 construct: gene TACR3

OX2 (h) = molecular target: T9, OX2 (h) (Homo sapiens, UniProt O43614)
T9 construct: gene HCRTR2

NMU1 (h) = molecular target: T10, NMU1 (h) (Homo sapiens, UniProt Q9HB89)
T10 construct: gene NMUR1

PK2 (h) = molecular target: T11, PK2 (h) (Homo sapiens, UniProt Q8NFJ6)
T11 construct: gene PROKR2
T11 sequence (Q8NFJ6 whole entry): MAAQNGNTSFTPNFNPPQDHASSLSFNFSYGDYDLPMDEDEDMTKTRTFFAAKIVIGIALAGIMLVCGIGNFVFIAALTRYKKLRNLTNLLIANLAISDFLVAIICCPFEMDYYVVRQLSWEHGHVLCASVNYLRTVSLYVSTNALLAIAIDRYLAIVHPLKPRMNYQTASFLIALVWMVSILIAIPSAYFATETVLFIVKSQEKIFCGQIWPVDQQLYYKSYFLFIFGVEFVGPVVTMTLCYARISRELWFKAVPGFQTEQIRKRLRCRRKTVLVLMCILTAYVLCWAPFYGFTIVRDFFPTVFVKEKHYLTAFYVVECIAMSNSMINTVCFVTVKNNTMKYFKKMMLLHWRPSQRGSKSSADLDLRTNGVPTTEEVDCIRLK

MC4 (h) = molecular target: T12, MC4 (h) (Homo sapiens, UniProt P32245)
T12 construct: gene MC4R
T12 sequence (P32245 whole entry): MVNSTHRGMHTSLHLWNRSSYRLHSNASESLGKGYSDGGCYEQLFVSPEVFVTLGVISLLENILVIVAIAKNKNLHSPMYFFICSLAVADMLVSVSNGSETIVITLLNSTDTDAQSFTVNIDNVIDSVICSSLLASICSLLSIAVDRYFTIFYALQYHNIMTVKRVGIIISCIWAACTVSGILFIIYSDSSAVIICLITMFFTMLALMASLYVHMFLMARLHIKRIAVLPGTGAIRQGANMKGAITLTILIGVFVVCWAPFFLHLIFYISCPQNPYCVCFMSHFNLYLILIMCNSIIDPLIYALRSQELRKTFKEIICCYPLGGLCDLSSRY

S1P4 (h) = molecular target: T13, S1P4 (h) (Homo sapiens, UniProt O95977)
T13 construct: gene S1PR4
T13 sequence (O95977 whole entry): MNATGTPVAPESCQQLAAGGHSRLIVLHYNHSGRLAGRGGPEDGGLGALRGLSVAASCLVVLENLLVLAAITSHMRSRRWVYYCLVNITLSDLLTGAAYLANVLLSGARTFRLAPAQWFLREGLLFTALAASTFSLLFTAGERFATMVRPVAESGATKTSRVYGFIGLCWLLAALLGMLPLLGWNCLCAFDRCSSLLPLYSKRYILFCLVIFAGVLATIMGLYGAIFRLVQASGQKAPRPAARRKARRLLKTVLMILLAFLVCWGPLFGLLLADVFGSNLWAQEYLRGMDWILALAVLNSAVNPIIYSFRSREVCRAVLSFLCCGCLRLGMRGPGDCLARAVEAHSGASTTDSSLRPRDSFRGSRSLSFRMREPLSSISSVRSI

μ (MOP) (h) = molecular target: T14, μ (MOP) (h) (Homo sapiens, UniProt P35372)
T14 construct: gene OPRM1
T14 sequence (P35372 whole entry): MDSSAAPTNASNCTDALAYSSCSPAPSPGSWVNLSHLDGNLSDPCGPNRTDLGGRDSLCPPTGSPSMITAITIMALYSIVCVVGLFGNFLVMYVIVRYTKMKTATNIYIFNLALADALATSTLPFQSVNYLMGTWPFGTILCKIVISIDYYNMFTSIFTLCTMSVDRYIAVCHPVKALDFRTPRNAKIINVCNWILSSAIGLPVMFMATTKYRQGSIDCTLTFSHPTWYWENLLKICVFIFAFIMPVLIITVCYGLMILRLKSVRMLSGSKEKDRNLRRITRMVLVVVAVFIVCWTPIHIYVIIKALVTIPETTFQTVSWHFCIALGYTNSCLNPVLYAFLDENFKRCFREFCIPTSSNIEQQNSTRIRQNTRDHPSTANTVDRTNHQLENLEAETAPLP

MCH1 (h) = molecular target: T15, MCH1 (h) (Homo sapiens, UniProt Q99705)
T15 construct: gene MCHR1

PAR1 (h) = molecular target: T16, PAR1 (h) (Homo sapiens, UniProt P25116)
T16 construct: gene F2R

IP (PGI2) (h) = molecular target: T17, IP (PGI2) (h) (Homo sapiens, UniProt P43119)
T17 construct: gene PTGIR

EP4 (h) = molecular target: T18, EP4 (h) (Homo sapiens, UniProt P35408)
T18 construct: gene PTGER4

M1 (h) = molecular target: T19, M1 (h) (Homo sapiens, UniProt P11229)
T19 construct: gene CHRM1
T19 sequence (P11229 whole entry): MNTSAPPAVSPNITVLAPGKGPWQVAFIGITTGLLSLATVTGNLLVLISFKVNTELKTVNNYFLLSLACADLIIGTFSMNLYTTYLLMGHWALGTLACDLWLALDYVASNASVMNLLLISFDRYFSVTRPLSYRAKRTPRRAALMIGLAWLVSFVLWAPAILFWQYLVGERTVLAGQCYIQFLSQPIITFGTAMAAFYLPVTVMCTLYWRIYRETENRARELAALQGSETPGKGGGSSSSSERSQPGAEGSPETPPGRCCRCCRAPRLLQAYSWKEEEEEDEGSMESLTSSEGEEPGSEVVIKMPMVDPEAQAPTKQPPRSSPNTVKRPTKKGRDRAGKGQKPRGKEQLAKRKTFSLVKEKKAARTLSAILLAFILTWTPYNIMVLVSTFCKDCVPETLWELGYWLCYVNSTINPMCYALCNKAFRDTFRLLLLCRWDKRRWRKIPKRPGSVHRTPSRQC

MrgD (h) = molecular target: T20, MrgD (h) (Homo sapiens, UniProt Q8TDS7)
T20 construct: gene MRGPRD
T20 sequence (Q8TDS7 whole entry): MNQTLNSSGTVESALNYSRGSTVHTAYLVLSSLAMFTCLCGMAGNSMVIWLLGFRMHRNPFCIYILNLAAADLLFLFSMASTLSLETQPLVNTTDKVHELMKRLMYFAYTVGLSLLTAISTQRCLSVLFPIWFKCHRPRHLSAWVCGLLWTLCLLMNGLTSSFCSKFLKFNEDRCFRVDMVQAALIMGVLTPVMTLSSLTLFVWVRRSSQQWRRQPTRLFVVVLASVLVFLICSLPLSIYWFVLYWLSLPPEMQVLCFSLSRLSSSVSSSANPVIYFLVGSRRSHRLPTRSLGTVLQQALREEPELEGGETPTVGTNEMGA

OX1 (h) = molecular target: T21, OX1 (h) (Homo sapiens, UniProt O43613)
T21 construct: gene HCRTR1
T21 sequence (O43613 whole entry): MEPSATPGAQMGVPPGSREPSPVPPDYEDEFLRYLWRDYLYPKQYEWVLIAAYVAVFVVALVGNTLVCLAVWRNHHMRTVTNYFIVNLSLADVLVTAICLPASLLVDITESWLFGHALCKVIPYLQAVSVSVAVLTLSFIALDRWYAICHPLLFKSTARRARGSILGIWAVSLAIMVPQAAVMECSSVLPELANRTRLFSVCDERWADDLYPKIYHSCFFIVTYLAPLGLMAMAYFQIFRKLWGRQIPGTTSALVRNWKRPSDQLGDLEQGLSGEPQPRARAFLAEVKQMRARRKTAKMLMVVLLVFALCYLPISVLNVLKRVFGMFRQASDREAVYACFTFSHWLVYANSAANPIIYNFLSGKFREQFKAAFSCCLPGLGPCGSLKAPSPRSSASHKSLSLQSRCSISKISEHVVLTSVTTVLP

PAF (h) = molecular target: T22, PAF (h) (Homo sapiens, UniProt P25105)
T22 construct: gene PTAFR

LPA3 (h) = molecular target: T23, LPA3 (h) (Homo sapiens, UniProt Q9UBY5)
T23 construct: gene LPAR3

S1P3 (h) = molecular target: T24, S1P3 (h) (Homo sapiens, UniProt Q99500)
T24 construct: gene S1PR3
T24 sequence (Q99500 whole entry): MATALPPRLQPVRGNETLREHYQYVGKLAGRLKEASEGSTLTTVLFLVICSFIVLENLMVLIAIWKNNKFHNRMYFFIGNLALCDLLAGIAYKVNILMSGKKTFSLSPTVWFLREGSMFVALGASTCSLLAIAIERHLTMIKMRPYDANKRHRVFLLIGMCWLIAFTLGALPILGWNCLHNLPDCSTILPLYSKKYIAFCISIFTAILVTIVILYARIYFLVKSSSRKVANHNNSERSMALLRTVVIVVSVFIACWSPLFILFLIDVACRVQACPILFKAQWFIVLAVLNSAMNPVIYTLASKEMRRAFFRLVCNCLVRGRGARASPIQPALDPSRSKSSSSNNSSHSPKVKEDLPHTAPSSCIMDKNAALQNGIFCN

NTS1 (NT1) (h) = molecular target: T25, NTS1 (NT1) (h) (Homo sapiens, UniProt P30989)
T25 construct: gene NTSR1
T25 sequence (P30989 whole entry): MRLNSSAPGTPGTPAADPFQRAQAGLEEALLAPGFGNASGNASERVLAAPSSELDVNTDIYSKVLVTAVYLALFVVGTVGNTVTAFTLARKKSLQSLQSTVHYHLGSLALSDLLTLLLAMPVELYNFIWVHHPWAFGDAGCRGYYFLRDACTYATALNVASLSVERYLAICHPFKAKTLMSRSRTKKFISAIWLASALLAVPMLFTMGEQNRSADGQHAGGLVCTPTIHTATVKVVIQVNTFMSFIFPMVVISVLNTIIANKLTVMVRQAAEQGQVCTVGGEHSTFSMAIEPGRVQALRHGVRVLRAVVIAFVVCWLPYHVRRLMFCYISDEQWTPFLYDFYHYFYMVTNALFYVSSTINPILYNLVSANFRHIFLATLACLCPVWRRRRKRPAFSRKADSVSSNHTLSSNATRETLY

## [O-][S@@+](Cc1cncs1)C(c1ccccc1)c1ccccc1 [S-CE-123, (S)-5-((Benzhydrylsulfinyl)Methyl)Thiazole]
PTH1 (h)
  inhibition at 2.8 µM: -10.6%
S1P1 (h)
  inhibition at 2.8 µM: 5.9%
M3 (h)
  inhibition at 2.8 µM: 0.8%
MCH2 (h)
  inhibition at 2.8 µM: 3.1%
MC5 (h)
  inhibition at 2.8 µM: -8.9%
EP1 (h)
  inhibition at 2.8 µM: -11.9%
M2 (h)
  inhibition at 2.8 µM: -9.2%
NK3 (h)
  inhibition at 2.8 µM: -5.1%
OX2 (h)
  inhibition at 2.8 µM: 4.2%
NMU1 (h)
  inhibition at 2.8 µM: -21.3%
PK2 (h)
  inhibition at 2.8 µM: 7.3%
MC4 (h)
  inhibition at 2.8 µM: 2.3%
S1P4 (h)
  inhibition at 2.8 µM: -14.6%
μ (MOP) (h)
  inhibition at 2.8 µM: 5%
MCH1 (h)
  inhibition at 2.8 µM: -0.9%
PAR1 (h)
  inhibition at 2.8 µM: 2.1%
IP (PGI2) (h)
  inhibition at 2.8 µM: 16.3%
EP4 (h)
  inhibition at 2.8 µM: -1.5%
M1 (h)
  inhibition at 2.8 µM: 2.6%
MrgD (h)
  inhibition at 2.8 µM: 30%
OX1 (h)
  inhibition at 2.8 µM: -14.5%
PAF (h)
  inhibition at 2.8 µM: -39.1%
LPA3 (h)
  inhibition at 2.8 µM: -34.4%
S1P3 (h)
  inhibition at 2.8 µM: 12.2%
NTS1 (NT1) (h)
  inhibition at 2.8 µM: -10%
